# Source: patent US5151414A, “Phenoxyethyl amine compounds active on the cardiovascular system” (SIMES Societa Italiana Medicinali e Sintetici S.p.A., priority 1987, dated 1992)
# Key:
# [1] = biological target: α1 receptor (rat cerebral cortex); test: α1 receptor binding on rat cerebral cortex
# Source text: (§1) The α1 -antagonistic activity has been evaluated as receptor binding on rat cerebral cortex and as antagonism to contraction induced by phenylephrine (α1 -agonist) on rabbit aorta.
# [2] = test system: dopaminergic activity, cat right atrium; test: "in vitro" inhibition of the answer to electric stimulation of cat right atrium (dopaminergic activity); format: biochemical
# Source text: (§2) Furthermore, the compounds of formula I show a remarkable dopaminergic activity in addition to an α1 -antagonistic effect. The dopaminergic activity has been evaluated by receptor binding tests as "in vitro" receptor affinity on isolated membranes of rat striated muscle and by pharmacological tests as "in vitro" inhibition of the answer to electric stimulation of cat right atrium.
# [3] = effects on systemic arterial pressure, heart rate and vascular resistances in anesthetized dog, intravenous route; format: in vivo
# Procedure: In fact, the compounds object of the present invention reduce meaningfully systemic arterial pressure after administration by intravenous route in anesthetized dog (see example 11). The compound N-[2-(2,6-dichlorophenoxy)-ethyl]-N-propyl-2-amino-5,6-dihydroxy-1,2,3,4-tetrahydronaphthalene hydrochloride (Compound A) was tested by intravenous route in anesthetized dog in order to evaluate the effects on systemic arterial pressure. Compound A, administered by intravenous route at the doses of 10 and 20 μg/kg, reduced systemic arterial pressure as well as peripheral resistances and particularly femoral resistances, the last reduction being associated also with an increase of the corresponding haematic flow.
# α1 (rabbit aorta) = test: antagonism to contraction induced by phenylephrine (α1-agonist) on rabbit aorta; format: biochemical
# Source text: as §1
# [4] = biological target: dopaminergic receptor (isolated membranes of rat striated muscle); test: receptor binding test, dopaminergic "in vitro" receptor affinity on isolated membranes of rat striated muscle
# Source text: as §2
smiles,measurement,setting,value
"CCCN(CCOc1c(Cl)cccc1Cl)C1CCc2c(ccc(O)c2O)C1.Cl (stereo not drawn) [Compound A, N-[2-(2,6-dichlorophenoxy)-ethyl]-N-propyl-2-amino-5,6-dihydroxy-1,2,3,4-tetrahydronaphthalene hydrochloride]",IC50,[1],0.076 µM
same,IC50,[2],8.5 µM
same,Renal resistances,"[3]; 10 μg/kg iv, basal 1.007 + 0.186",0.871 ± 0.162 mmHg/ml/min
same,Femoral resistances,"[3]; 10 μg/kg iv, basal 2.471 + 0.260",1.802 ± 0.471 mmHg/ml/min
same,a. femoral flow,"[3]; 10 μg/kg iv, basal 54.1 + 3.8",67.4 ± 12.4 mL/min
same,Arterial pressure Mn,"[3]; 10 μg/kg iv, basal 118 + 5",102 ± 8 mmHg
same,Arterial pressure Md,"[3]; 10 μg/kg iv, basal 136 + 4",119 ± 7 mmHg
same,a. renal flow,"[3]; 10 μg/kg iv, basal 143.7 + 23.7",144.7 ± 20.6 mL/min
same,Heart rate,"[3]; 10 μg/kg iv, basal 152 + 11",161 ± 12 beats/min
same,Arterial pressure Mx,"[3]; 10 μg/kg iv, basal 160 + 10",145 ± 8 mmHg
same,Renal resistances,"[3]; 20 μg/kg iv, basal 1.246 + 0.389",1.082 ± 0.367 mmHg/ml/min
same,Femoral resistances,"[3]; 20 μg/kg iv, basal 2.445 + 0.787",1.274 ± 0.171 mmHg/ml/min
same,a. femoral flow,"[3]; 20 μg/kg iv, basal 65.6 + 20.0",87.8 ± 20.0 mL/min
same,Arterial pressure Mn,"[3]; 20 μg/kg iv, basal 118 + 9",96 ± 11 mmHg
same,a. renal flow,"[3]; 20 μg/kg iv, basal 129.9 + 31.8",128.9 ± 31.3 mL/min
same,Arterial pressure Md,"[3]; 20 μg/kg iv, basal 132 + 8",109 ± 9 mmHg
same,Heart rate,"[3]; 20 μg/kg iv, basal 136 + 13",146 ± 17 beats/min
same,Arterial pressure Mx,"[3]; 20 μg/kg iv, basal 148 + 8",124 ± 9 mmHg
same,femoral resistances (in words),"[3]; intravenous, 10 and 20 μg/kg",reduced
same,"haematic flow, femoral (in words)","[3]; intravenous, 10 and 20 μg/kg",increase
same,peripheral resistances (in words),"[3]; intravenous, 10 and 20 μg/kg",reduced
same,systemic arterial pressure (in words),"[3]; intravenous, 10 and 20 μg/kg",reduced
same,pA2 (rabbit aorta),α1 (rabbit aorta),7.42
same,IC50,[4],0.251 µM
